Format in all cases: cell-based
One experiment concerns the target T1, Ba/F3-KIF5B-RET-V804L (Homo sapiens, UniProt P07949, V804L).
T1 construct: KIF5B (fusion partner, N-terminal part of kinesin-1 heavy chain, P33176); host or cells: Ba/F3 (murine pro-B cells); the other entry of the earlier key: KIF5B (P33176, Kinesin-1 heavy chain)
T1 sequence (P07949 713-1063 V804L limits assumed): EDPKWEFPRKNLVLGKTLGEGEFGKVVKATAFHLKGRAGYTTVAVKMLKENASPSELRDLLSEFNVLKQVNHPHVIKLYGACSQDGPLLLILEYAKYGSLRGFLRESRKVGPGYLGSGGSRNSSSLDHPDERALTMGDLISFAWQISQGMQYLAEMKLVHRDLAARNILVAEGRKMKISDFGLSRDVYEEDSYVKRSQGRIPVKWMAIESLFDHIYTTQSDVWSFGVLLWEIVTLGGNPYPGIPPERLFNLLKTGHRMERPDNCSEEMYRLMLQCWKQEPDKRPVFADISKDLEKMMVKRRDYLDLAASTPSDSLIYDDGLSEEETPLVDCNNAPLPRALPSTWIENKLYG
Briefly: Cell anti-proliferation (CellTiter-Glo), Ba/F3-KIF5B-RET-V804L cells. The settings on record: cell viability, 72 h incubation. Here is the method:
(§1) Ba/F3-KIF5B-RET, Ba/F3-KIF5B-RET-V804L and Ba/F3-KIF5B-RET-V804M cells were constructed by PreceDo Pharmaceuticals Co., Ltd.
(§2) Ba/F3-KIF5B-RET, Ba/F3-KIF5B-RET-V804L and Ba/F3-KIF5B-RET-V804M medium: RPMI-1640+10% FBS+1% P/S.
(§3) A 1000×solution of the compound was prepared with DMSO, the compound was diluted to 20 times to obtain the final concentration with a growth medium, and 2 μl 1000×cpd was added to 98 μl growth medium.
(§4) Cells were centrifuged and resuspended with growth medium and cell counting was performed using a cell counter. The cell suspension was diluted with growth medium to the desired concentration. 95 uL of the diluted cell suspension was taken out to a 96-well plate. 5 μL of 20×compound solution was added to the 96-well plate to a final DMSO concentration of 0.1% per well. The 96-well plate was incubated for 72 h at 37° C. with 5% CO2.
(§5) The 96-well plate was equilibrated to room temperature before the assay, 50 μl of CellTiter-Glo® Reagent was added to each well, the cells were fully lysed by shaking for 2 minutes on a shaker, incubated for 10 minutes at room temperature, and Paradigm was used to detect and record the […] readings.
(§6) Cell viability was analyzed using Graphpad 7.0 software according to the formula Cell viability (CV %)=(RLU compound−RLU blank)/(RLU control−RLU blank)*100%, and the corresponding IC50 data were calculated, in Table 1, the following names are used: <10.00 nM=A; 10.01-50.0 nM=B; >50 nM=C.

A further experiment addresses T2, Ba/F3-KIF5B-RET-V804M (Homo sapiens, UniProt P07949, V804M).
T2 construct: KIF5B (fusion partner, N-terminal part of kinesin-1 heavy chain, P33176); host or cells: Ba/F3 (murine pro-B cells); the other entry of the earlier key: KIF5B (P33176, Kinesin-1 heavy chain)
T2 sequence (P07949 713-1063 V804M limits assumed): T1 sequence (P07949 713-1063 V804L limits assumed) with L92M
Description: Cell anti-proliferation (CellTiter-Glo), Ba/F3-KIF5B-RET-V804M cells. The conditions noted are these: cell viability, 72 h incubation. Here is the method: as §1, §2, §3, §4, §5, §6

For another experiment, the target named is T3, Ba/F3-KIF5B-RET (Homo sapiens, UniProt P07949).
T3 construct: KIF5B (fusion partner, N-terminal part of kinesin-1 heavy chain, P33176); host or cells: Ba/F3 (murine pro-B cells); the other entry of the earlier key: KIF5B (P33176, Kinesin-1 heavy chain)
T3 sequence (P07949 713-1063 limits assumed): T1 sequence (P07949 713-1063 V804L limits assumed) with L92V
Briefly: Cell anti-proliferation (CellTiter-Glo), Ba/F3-KIF5B-RET cells. The conditions noted are these: for IC50: cell viability, 72 h incubation, CellTiter-Glo. Here is the method:
as §1, §2, §3, §4, §5, §6

Each structure is given as a SMILES string. Numbering of substitutions follows the chain as printed.

`CO[C@]1(C(=O)N[C@@H](C)c2ccc(-n3cc(F)cn3)nc2)CC[C@H](c2nc(Nc3cc(C)[nH]n3)c3cnn(COCC[Si](C)(C)C)c3n2)CC1` [Compound C2]: the IC50 on Ba/F3-KIF5B-RET-V804L is 10 to 50 nM; against Ba/F3-KIF5B-RET-V804M, more than 50 nM; against Ba/F3-KIF5B-RET it was more than 50 nM.

With `[2H]C([2H])([2H])n1ncc2c(Nc3cc(C)[nH]n3)nc([C@H]3CC[C@](OC)(C(=O)N[C@@H](C)c4ccc(-n5cc(F)cn5)nc4)CC3)nc21` [Compound C3], the IC50 against Ba/F3-KIF5B-RET-V804L, against Ba/F3-KIF5B-RET-V804M and against Ba/F3-KIF5B-RET was less than 10 nM each time.

Turning to `CCn1ncc2c(Nc3cc(C)[nH]n3)nc([C@H]3CC[C@](OC)(C(=O)N[C@@H](C)c4ccc(-n5cc(F)cn5)nc4)CC3)nc21` [Compound C4], the IC50 against Ba/F3-KIF5B-RET-V804L, against Ba/F3-KIF5B-RET-V804M and against Ba/F3-KIF5B-RET was less than 10 nM in each case.

For `CCn1ncc2c(Nc3cc(C)[nH]n3)nc([C@H]3CC[C@](OC)(C(=O)N[C@@H](C)c4cnc(-n5cc(F)cn5)cn4)CC3)nc21` [Compound C5], the concentration for half-maximal inhibition (IC50) on Ba/F3-KIF5B-RET-V804L, against Ba/F3-KIF5B-RET-V804M and against Ba/F3-KIF5B-RET was less than 10 nM in each case.

In the case of `CO[C@]1(C(=O)N[C@@H](C)c2ccc(-n3cc(F)cn3)nc2)CC[C@H](c2nc(Nc3cc(C)[nH]n3)c3cnn(CC(F)F)c3n2)CC1` [Compound C6], the IC50 against Ba/F3-KIF5B-RET-V804L, against Ba/F3-KIF5B-RET-V804M and against Ba/F3-KIF5B-RET was less than 10 nM in each case.

As to `CO[C@]1(C(=O)N[C@@H](C)c2cnc(-n3cc(F)cn3)cn2)CC[C@H](c2nc(Nc3cc(C)[nH]n3)c3cnn(CC(F)F)c3n2)CC1` [Compound C7], the 50% inhibitory concentration (IC50) against Ba/F3-KIF5B-RET-V804L, against Ba/F3-KIF5B-RET-V804M and against Ba/F3-KIF5B-RET was less than 10 nM throughout.

For `CO[C@]1(C(=O)N[C@@H](C)c2cnc(-n3cc(F)cn3)cn2)CC[C@H](c2nc(Nc3cc(C)[nH]n3)c3cnn(C)c3n2)CC1` [Compound C8], the IC50 on Ba/F3-KIF5B-RET-V804L, on Ba/F3-KIF5B-RET-V804M and against Ba/F3-KIF5B-RET was less than 10 nM each time.

In the case of `[2H]C([2H])([2H])n1ncc2c(Nc3cc(C)[nH]n3)nc([C@H]3CC[C@](OC)(C(=O)N[C@@H](C)c4cnc(-n5cc(F)cn5)cn4)CC3)nc21` [Compound C9], the IC50 against Ba/F3-KIF5B-RET-V804L, against Ba/F3-KIF5B-RET-V804M and at Ba/F3-KIF5B-RET was less than 10 nM throughout.

As to `COCCn1ncc2c(Nc3cc(C)[nH]n3)nc([C@H]3CC[C@](OC)(C(=O)N[C@@H](C)c4cnc(-n5cc(F)cn5)cn4)CC3)nc21` [Compound C10], the IC50 against Ba/F3-KIF5B-RET-V804L was less than 10 nM; against Ba/F3-KIF5B-RET-V804M, 10 to 50 nM; on Ba/F3-KIF5B-RET it was less than 10 nM.

On to `CO[C@]1(C(=O)N[C@@H](C)c2cnc(-n3cc(F)cn3)cn2)CC[C@H](c2nc(Nc3cc(C)[nH]n3)c3cnn(C4CC(F)(F)C4)c3n2)CC1` [Compound C11], for which the 50% inhibitory concentration (IC50) against Ba/F3-KIF5B-RET-V804L, at Ba/F3-KIF5B-RET-V804M and on Ba/F3-KIF5B-RET was 10 to 50 nM in each case.

As for `CO[C@]1(C(=O)N[C@@H](C)c2cnc(-n3cc(F)cn3)cn2)CC[C@H](c2nc(Nc3cc(C)[nH]n3)c3cnn(CC4CC4)c3n2)CC1` [Compound C12], the 50% inhibitory concentration (IC50) against Ba/F3-KIF5B-RET-V804L is less than 10 nM; at Ba/F3-KIF5B-RET-V804M it was 10 to 50 nM; at Ba/F3-KIF5B-RET, less than 10 nM.

Regarding `CCn1ncc2c(Nc3cc(C)[nH]n3)nc([C@H]3CC[C@](OC)(C(=O)N[C@@H](C)c4cnc(-n5cc(F)cn5)s4)CC3)nc21` [Compound C13], the figures for the 50% inhibitory concentration (IC50) against Ba/F3-KIF5B-RET-V804L, at Ba/F3-KIF5B-RET-V804M and at Ba/F3-KIF5B-RET were less than 10 nM, 10 to 50 nM and less than 10 nM, respectively.

Consider `CO[C@]1(C(=O)N[C@@H](C)c2cnc(-n3cc(F)cn3)s2)CC[C@H](c2nc(Nc3cc(C)[nH]n3)c3cnn(C4CC4)c3n2)CC1` [Compound C14], for which the values for the 50% inhibitory concentration (IC50) on Ba/F3-KIF5B-RET-V804L, against Ba/F3-KIF5B-RET-V804M and on Ba/F3-KIF5B-RET were less than 10 nM, 10 to 50 nM and less than 10 nM, respectively.

Regarding `CCn1ncc2c(Nc3cc(C)[nH]n3)nc([C@H]3CC[C@](OC)(C(=O)N[C@@H](C)c4csc(-n5cc(F)cn5)n4)CC3)nc21` [Compound C15], the IC50 against Ba/F3-KIF5B-RET-V804L is less than 10 nM; on Ba/F3-KIF5B-RET-V804M it was 10 to 50 nM; at Ba/F3-KIF5B-RET, less than 10 nM.

Consider `CO[C@]1(C(=O)N[C@@H](C)c2csc(-n3cc(F)cn3)n2)CC[C@H](c2nc(Nc3cc(C)[nH]n3)c3cnn(C4CC4)c3n2)CC1` [Compound C16], for which the half-inhibitory concentration (IC50) was less than 10 nM against Ba/F3-KIF5B-RET-V804L, 10 to 50 nM at Ba/F3-KIF5B-RET-V804M and less than 10 nM on Ba/F3-KIF5B-RET.

In the case of `CO[C@]1(C(=O)N[C@@H](C)c2ccc(-n3cc(F)cn3)nc2)CC[C@H](c2nc(Nc3cc(C)[nH]n3)c3cnn(CCF)c3n2)CC1` [Compound C18], the IC50 against Ba/F3-KIF5B-RET-V804L, against Ba/F3-KIF5B-RET-V804M and against Ba/F3-KIF5B-RET was less than 10 nM throughout.

Consider `CO[C@]1(C(=O)N[C@@H](C)c2cnc(-n3cc(F)cn3)cn2)CC[C@H](c2nc(Nc3cc(C)[nH]n3)c3cnn(C4CC4)c3n2)CC1` [Compound C20], for which the IC50 on Ba/F3-KIF5B-RET-V804L, at Ba/F3-KIF5B-RET-V804M and against Ba/F3-KIF5B-RET was less than 10 nM each time.

For the compound `CO[C@]1(C(=O)N[C@@H](C)c2cnc(-n3cc(F)cn3)cn2)CC[C@H](c2nc(Nc3cc(C)[nH]n3)c3cnn(C4COC4)c3n2)CC1` [Compound C21], the half-maximal inhibitory concentration (IC50) against Ba/F3-KIF5B-RET-V804L, against Ba/F3-KIF5B-RET-V804M and against Ba/F3-KIF5B-RET was 10 to 50 nM each time.

As to `CCCn1ncc2c(Nc3cc(C)[nH]n3)nc([C@H]3CC[C@](OC)(C(=O)N[C@@H](C)c4cnc(-n5cc(F)cn5)cn4)CC3)nc21` [Compound C22], the IC50 against Ba/F3-KIF5B-RET-V804L, on Ba/F3-KIF5B-RET-V804M and at Ba/F3-KIF5B-RET was 10 to 50 nM throughout.

As for `CO[C@]1(C(=O)N[C@@H](C)c2cnc(-n3cc(F)cn3)cn2)CC[C@H](c2nc(Nc3cc(C)[nH]n3)c3cnn(CC(F)(F)F)c3n2)CC1` [Compound C23], the IC50 against Ba/F3-KIF5B-RET-V804L was less than 10 nM; against Ba/F3-KIF5B-RET-V804M, 10 to 50 nM; at Ba/F3-KIF5B-RET, less than 10 nM. For the same compound, the “RET inhibitory activity / inhibition effect (in words)” value on Ba/F3-KIF5B-RET (summary of Table 1, especially Ba/F3-KIF5B-RET-V804M and Ba/F3-KIF5B-RET-V804L) is on record as “superior to that of Control Example 3”.

Take `CO[C@]1(C(=O)N[C@@H](C)c2cnc(-n3cc(F)cn3)cn2)CC[C@H](c2nc(Nc3cc(C)[nH]n3)c3cn(CC(F)(F)F)nc3n2)CC1` [Control Example 3, reference compound]: the IC50 is 10 to 50 nM against Ba/F3-KIF5B-RET-V804L, more than 50 nM against Ba/F3-KIF5B-RET-V804M and 10 to 50 nM on Ba/F3-KIF5B-RET.

Source of the values: patent US12545681B2, “Compound used as RET kinase inhibitor and application thereof” (TYK Medicines, Inc., priority 2020, dated 2026).
